# What was measured:
# D(1A) dopamine receptor = D(1A) dopamine receptor (Rattus norvegicus, UniProt P18901); assay: Binding affinity towards Dopamine receptor D1 in rat striatal tissue by [3H]-SCH- 23390 displacement.; type: tissue-based, Striatum
# Rattus norvegicus = assay: Minimal dose producing reduction in avoidance responding after sc administration for 1 hr in rat; type: functional
# D(2) dopamine receptor = D(2) dopamine receptor (Rattus norvegicus, UniProt P61169); assay: Binding affinity towards Dopamine receptor D2 in rat striatal tissue by [3H]spiperone displacement.; type: tissue-based, Striatum
# Sequence of D(2) dopamine receptor (P61169 whole entry): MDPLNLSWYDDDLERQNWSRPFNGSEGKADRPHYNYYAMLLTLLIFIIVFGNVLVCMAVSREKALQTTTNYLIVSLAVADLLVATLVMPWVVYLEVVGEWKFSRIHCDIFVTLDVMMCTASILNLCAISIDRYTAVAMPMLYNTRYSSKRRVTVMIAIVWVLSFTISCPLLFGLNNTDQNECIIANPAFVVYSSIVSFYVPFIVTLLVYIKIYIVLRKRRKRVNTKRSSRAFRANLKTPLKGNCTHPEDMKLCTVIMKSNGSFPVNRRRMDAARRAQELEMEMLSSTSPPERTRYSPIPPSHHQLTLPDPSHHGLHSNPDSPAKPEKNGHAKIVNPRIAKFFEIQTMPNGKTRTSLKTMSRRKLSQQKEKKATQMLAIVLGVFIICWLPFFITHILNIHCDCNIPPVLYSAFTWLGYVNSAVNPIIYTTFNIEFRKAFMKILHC
# Sequence of D(1A) dopamine receptor (P18901 whole entry): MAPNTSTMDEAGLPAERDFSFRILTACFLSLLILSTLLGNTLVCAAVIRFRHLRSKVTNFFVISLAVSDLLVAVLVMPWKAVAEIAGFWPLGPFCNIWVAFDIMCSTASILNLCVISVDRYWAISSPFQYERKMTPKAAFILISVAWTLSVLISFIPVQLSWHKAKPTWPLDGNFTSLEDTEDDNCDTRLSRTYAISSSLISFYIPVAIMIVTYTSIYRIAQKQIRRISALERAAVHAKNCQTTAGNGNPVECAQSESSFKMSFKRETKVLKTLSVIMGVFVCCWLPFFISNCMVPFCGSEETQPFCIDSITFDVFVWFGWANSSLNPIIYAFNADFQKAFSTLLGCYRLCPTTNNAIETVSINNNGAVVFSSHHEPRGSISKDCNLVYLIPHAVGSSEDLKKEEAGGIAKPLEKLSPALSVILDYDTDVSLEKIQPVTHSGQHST
Ki (D(1A) dopamine receptor),Ki (D(2) dopamine receptor),SMILES,CAR (Rattus norvegicus)
8.7 nM,626 nM,C#CCC1CN(C)CCc2cc(Cl)c(O)cc21 (centres undefined),1 MPK
3.7 nM,1800 nM,CN1CCc2cc(Cl)c(O)cc2C(C2C=CC=CC=C2)C1 (centres undefined),0.1 MPK
2 nM,581 nM,CN1CCc2cc(Cl)c(O)cc2C(C2C=CCCC2)C1 (centres undefined),0.3 MPK
2.1 nM,1600 nM,CN1CCc2cc(Cl)c(O)cc2C(C2=CCCCC2)C1 (centres undefined),0.1 MPK
100 nM,> 10000 nM,CN1CCc2cc(Cl)c(O)cc2C(N2CCCCC2)C1 (centres undefined),3 MPK
5.7 nM,284 nM,C=CCC1CN(C)CCc2cc(Cl)c(O)cc21 (centres undefined),0.1 MPK
7.6 nM,1190 nM,CN1CCc2cc(Cl)c(O)cc2C(C2CCCCCC2)C1 (centres undefined),1 MPK
,2710 nM,CCSC1CN(C)CCc2cc(Cl)c(O)cc21 (centres undefined),
13 nM,2050 nM,CN1CCc2cc(Cl)c(O)cc2C(C2CCCC2)C1 (centres undefined),1 MPK
> 1000 nM,> 100000 nM,CN(C)CCCC1CN(C)CCc2cc(Cl)c(O)cc21 (centres undefined),
5.1 nM,1540 nM,CN1CCc2cc(Cl)c(O)cc2C(C2=CCCC2)C1 (centres undefined),
,1780 nM,CN1CCc2cc(Cl)c(O)cc2C(C2CCCCC2)C1 (centres undefined),0.3 MPK
,,CN1CCc2cc(Cl)c(O)cc2[C@@H](c2ccccc2)C1 [SCH-23390],0.02 MPK

SMILES,Ki (D(1A) dopamine receptor),Ki (D(2) dopamine receptor),CAR (Rattus norvegicus)
CCOC1CN(C)CCc2cc(Cl)c(O)cc21 (centres undefined),24 nM,> 10000 nM,1 MPK
CCCC1CN(C)CCc2cc(Cl)c(O)cc21 (centres undefined),3.3 nM,1160 nM,0.3 MPK
CN1CCc2cc(Cl)c(O)cc2C2(CCCC2)C1,23 nM,2250 nM,1 MPK
CN1CCc2cc(O)c(Cl)cc2CC1,46 nM,265 nM,1 MPK
